Patent publication US11090304B2 (Amgen Inc., priority 2018, dated 2021)

What follows are compounds tested against GDP-bound KRAS protein (aa 1-169), containing both G12C and C118A amino acid substitutions (Homo sapiens, UniProt P01116, C118A/G12C) (assay: Coupled nucleotide exchange assay (SOS-mediated, AlphaScreen)). Conditions: 5 min compound pre-incubation.
Sequence of GDP-bound KRAS protein (aa 1-169), containing both G12C and C118A amino acid substitutions (P01116 1-169 isoform P01116-2 G12C/C118A): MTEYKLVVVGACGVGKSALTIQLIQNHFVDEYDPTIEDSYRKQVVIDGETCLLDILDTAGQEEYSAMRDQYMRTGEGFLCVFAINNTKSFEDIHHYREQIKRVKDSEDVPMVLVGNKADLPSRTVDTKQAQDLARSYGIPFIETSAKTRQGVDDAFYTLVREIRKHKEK
Format: biochemical
In the case of `C=CC(=O)N1CCN(c2nc(=O)n(-c3ccccc3C(C)C)c3nc(N(C)C(C)C)c(Cl)cc23)[C@@H](C)C1` [Example 69-6, 6-chloro-7-(methyl(2-propanyl)amino)-4-((2S)-2-methyl-4-(2-propenoyl)-1-piperazinyl)-1-(2-(2-propanyl)phenyl)pyrido[2,3-d]pyrimidin-2(1H)-one], the “Coupled exchange IC50 (5 min)” value is reported as 13.7 | nda μM.
With `C=CC(=O)N1CCN(c2nc(=O)n(-c3ccccc3C(C)C)c3nc(N(C)CCO)c(Cl)cc23)[C@@H](C)C1` [Example 69-7, 6-chloro-7-((2-hydroxyethyl)(methyl)amino)-4-((2S)-2-methyl-4-(2-propenoyl)-1-piperazinyl)-1-(2-(2-propanyl)phenyl)pyrido[2,3-d]pyrimidin-2(1H)-one] the “Coupled exchange IC50 (5 min)” value was 48.5 | nda μM.
For `C=CC(=O)N1CCN(c2nc(=O)n(-c3c(C)cccc3C(C)C)c3nc(-c4nc(N)ccc4Cl)c(F)cc23)[C@@H](C)C1` [Example 71-1, 7-(6-Amino-3-chloro-2-pyridinyl)-6-fluoro-1-(2-methyl-6-(2-propanyl)phenyl)-4-((2S)-2-methyl-4-(2-propenoyl)-1-piperazinyl)pyrido[2,3-d]pyrimidin-2(1H)-one], the “Coupled exchange IC50 (5 min)” value was 1.12 | nda μM.
For `C=CC(=O)N1CCN(c2nc(=O)c(-c3ccccc3C)c3cc(-c4ccccc4Br)c(C)nn23)CC1` [Example 81-1, 3-(2-Bromophenyl)-2-methyl-5-(2-methylphenyl)-8-(4-(2-propenoyl)-1-piperazinyl)-6H-pyrimido[1,6-b]pyridazin-6-one], the “Coupled exchange IC50 (5 min)” value was 172 | nda μM.
`C=CC(=O)N1CCN(c2nc(=O)c(-c3ccccc3C(C)C)c3cc(-c4ccccc4F)c(C)nn23)CC1` [Example 81-2, 3-(2-fluorophenyl)-2-methyl-5-(2-(2-propanyl)phenyl)-8-(4-(2-propenoyl)-1-piperazinyl)-6H-pyrimido[1,6-b]pyridazin-6-one] was tested, and the “Coupled exchange IC50 (5 min)” value was 14.1 | nda μM.
For `C=CC(=O)N1CCN(c2nc(=O)c(-c3ccccc3C(C)C)c3cc(-c4ccccc4F)c(C)nn23)[C@@H](C)C1` [Example 81-3, 3-(2-fluorophenyl)-2-methyl-8-((2S)-2-methyl-4-(2-propenoyl)-1-piperazinyl)-5-(2-(2-propanyl)phenyl)-6H-pyrimido[1,6-b]pyridazin-6-one], the “Coupled exchange IC50 (5 min)” value was 2.87 | nda μM.
In the case of `C=CC(=O)N1C[C@@H](C)N(c2nc(=O)n(-c3c(C(C)C)ncnc3C(C)C)c3nc(-c4ccccc4F)c(Cl)cc23)[C@H](C)C1` [Example 87-3], the “Coupled exchange IC50 (5 min)” value is reported as 17.3 | nda μM.
In the case of `C=CC(=O)N1CCN(c2nc(=O)n(-c3ccccc3C(F)(F)F)c3cc(-c4ccccc4F)c(Cl)cc23)[C@@H](C)C1` [Example 93, 6-Chloro-7-(2-fluorophenyl)-4-((2S)-2-methyl-4-(2-propenoyl)-1-piperazinyl)-1-(2-(trifluoromethyl)phenyl)-2(1H)-quinazolinone], the “Coupled exchange IC50 (5 min)” value is reported as 1.59 | nda μM.
With `C=CC(=O)N1CCN(c2nc(=O)n(-c3c(CC)cccc3CC)c3nc(-c4ccccc4F)c(Cl)cc23)[C@@H](C(=O)O)C1` [Example 96, (2R)-1-(6-Chloro-1-(2,6-diethylphenyl)-7-(2-fluorophenyl)-2-oxo-1,2-dihydropyrido[2,3-d]pyrimidin-4-yl)-4-(2-propenoyl)-2-piperazinecarboxylic acid] the “Coupled exchange IC50 (5 min)” value was 4.85 | nda μM.
`C=CC(=O)N1CCN(c2nc(=O)n(-c3ccccc3)c3nc(-c4c(O)cccc4F)c(Cl)cc23)[C@@H](C)C1` [Example 100, 6-Chloro-7-(2-fluoro-6-hydroxyphenyl)-4-((2S)-2-methyl-4-(2-propenoyl)-1-piperazinyl)-1-phenylpyrido[2,3-d]pyrimidin-2(1H)-one] was tested, and the “Coupled exchange IC50 (5 min)” value was 3.45 | nda μM.
In the case of `C=CC(=O)N1CCN(c2nc(=O)n(-c3ccccc3C(C)C)c3nc(-c4ccccc4F)c(CC)nc23)[C@@H](C)C1` [Example 108, 6-Ethyl-7-(2-fluorophenyl)-4-((2S)-2-methyl-4-(2-propenoyl)-1-piperazinyl)-1-(2-(2-propanyl)phenyl)-2(1H)-pteridinone], the “Coupled exchange IC50 (5 min)” value is reported as 1 | nda μM.
With `C=CC(=O)N1CCN(c2nc(=O)n(-c3ccccc3C(C)C)c3nc(-c4ccccc4F)c(OC)nc23)[C@@H](C)C1` [Example 109, 7-(2-Fluorophenyl)-6-methoxy-4-((2S)-2-methyl-4-(2-propenoyl)-1-piperazinyl)-1-(2-(2-propanyl)phenyl)-2(1H)-pteridinone] the “Coupled exchange IC50 (5 min)” value was 1.32 | nda μM.
In the case of `C=CC(=O)N1CCN(c2nc(=O)[nH]c3nc(-c4c(O)cccc4F)c(Cl)cc23)[C@@H](C)C1` [Example 119, 6-Chloro-7-(2-fluoro-6-hydroxyphenyl)-4-((2S)-2-methyl-4-(2-propenoyl)-1-piperazinyl)pyrido[2,3-d]pyrimidin-2(1H)-one], the “Coupled exchange IC50 (5 min)” value is reported as 10.8 | nda μM.
In the case of `C=CC(=O)N1CCN(c2cc(=O)n(CC(C)(C)C)c3nc(-c4ccccc4F)ccc23)[C@@H](C)C1` [Example 120, 1-(2,2-Dimethylpropyl)-7-(2-fluorophenyl)-4-((2S)-2-methyl-4-(2-propenoyl)-1-piperazinyl)-1,8-naphthyridin-2(1H)-one], the “Coupled exchange IC50 (5 min)” value is reported as 71.1 | nda μM.
In the case of `C=CC(=O)N1CCN(c2cc(=O)n(CC(C)(C)C)c3nc(-c4ccccc4F)c(Cl)cc23)[C@@H](C)C1` [Example 121, 6-chloro-1-(2,2-dimethylpropyl)-7-(2-fluorophenyl)-4-((2S)-2-methyl-4-(2-propenoyl)-1-piperazinyl)-1,8-naphthyridin-2(1H)-one], the “Coupled exchange IC50 (5 min)” value is reported as 14.2 | nda μM.
In the case of `C=CC(=O)N1CCN(c2cc(=O)n(CC(C)(C)C)c3nc(-c4ccccc4F)c(Cl)cc23)CC1` [Example 122, 6-Chloro-1-(2,2-dimethylpropyl)-7-(2-fluorophenyl)-4-(4-(2-propenoyl)-1-piperazinyl)-1,8-naphthyridin-2(1H)-one], the “Coupled exchange IC50 (5 min)” value is reported as 5.29 | nda μM.
`C=CC(=O)N1CCN(c2cc(=O)n(CC(C)(C)C)c3nc(-c4ccccc4F)ccc23)CC1` [Example 123, 1-(2,2-Dimethylpropyl)-7-(2-fluorophenyl)-4-(4-(2-propenoyl)-1-piperazinyl)-1,8-naphthyridin-2(1H)-one] was tested, and the “Coupled exchange IC50 (5 min)” value was 38.6 | nda μM.
With `C=CC(=O)N1CC=C(c2cc(=O)n(CC(C)(C)C)c3nc(-c4ccccc4F)c(Cl)cc23)CC1` [Example 124, 6-Chloro-1-(2,2-dimethylpropyl)-7-(2-fluorophenyl)-4-(1-(2-propenoyl)-1,2,3,6-tetrahydro-4-pyridinyl)-1,8-naphthyridin-2(1H)-one] the “Coupled exchange IC50 (5 min)” value was 6.22 | nda μM.
In the case of `C=CC(=O)N1CCC(c2cc(=O)n(CC(C)(C)C)c3nc(-c4ccccc4F)c(Cl)cc23)CC1` [Example 125, 6-Chloro-1-(2,2-dimethylpropyl)-7-(2-fluorophenyl)-4-(1-(2-propenoyl)-4-piperidinyl)-1,8-naphthyridin-2(1H)-one], the “Coupled exchange IC50 (5 min)” value is reported as 35.4 | nda μM.
For `C=CC(=O)N1CCN(c2cc(=O)n(-c3ccccc3C(C)C)c3nc(-c4ccccc4F)ccc23)[C@@H](C)C1` [Example 127, 7-(2-fluorophenyl)-4-((2S)-2-methyl-4-(2-propenoyl)-1-piperazinyl)-1-(2-(2-propanyl)phenyl)-1,8-naphthyridin-2(1H)-one], the “Coupled exchange IC50 (5 min)” value was 27.2 | nda μM.
In the case of `C=CC(=O)N1CCN(c2nc(OC)c(-c3ccccc3C)c3nc(-c4ccccc4F)c(Cl)cc23)[C@@H](C)C1` [Example 134, 1-((3S)-4-(3-Chloro-2-(2-fluorophenyl)-7-methoxy-8-(2-methylphenyl)-1,6-naphthyridin-5-yl)-3-methyl-1-piperazinyl)-2-propen-1-one], the “Coupled exchange IC50 (5 min)” value is reported as 1.95 | nda μM.
With `C=CC(=O)N1CCN(c2nc(=O)n(-c3c(C)ccnc3C(C)C)c3nc(-c4ccccc4F)c(C)nc23)[C@@H](C)C1` [Example 143, 7-(2-Fluorophenyl)-6-methyl-1-(4-methyl-2-(2-propanyl)-3-pyridinyl)-4-((2S)-2-methyl-4-(2-propenoyl)-1-piperazinyl)-2(1H)-pteridinone] the “Coupled exchange IC50 (5 min)” value was 0.497 | nda μM.
In the case of `C=CC(=O)N1CCN(c2nc(C)c(C(=O)N(C(C)C)C(C)C)c3nc(-c4ccccc4F)c(Cl)cc23)CC1` [Example 144, 3-Chloro-2-(2-fluorophenyl)-7-methyl-N,N-di(2-propanyl)-5-(4-(2-propenoyl)-1-piperazinyl)-1,6-naphthyridine-8-carboxamide], the “Coupled exchange IC50 (5 min)” value is reported as 8.31 | nda μM.

Same assay, conditions: 2 h compound pre-incubation
In the case of `C=CC(=O)N1CCN(c2nc(=O)n(-c3c(CC)cccc3CC)c3nc(-c4c(O)cccc4F)ccc23)[C@@H](C)C1` [Example 107, 1-(2,6-Diethylphenyl)-7-(2-fluoro-6-hydroxyphenyl)-4-((2S)-2-methyl-4-(2-propenoyl)-1-piperazinyl)pyrido[2,3-d]pyrimidin-2(1H)-one], the “Coupled exchange IC50 (2 h)” value is reported as “nda | 3.14 μM”.
`C=CC(=O)N1CCN(c2nc(=O)n(-c3ccccc3C(F)(F)F)c3cc(Br)c(Cl)cc23)CC1` [Example 128, 7-Bromo-6-chloro-4-(4-(2-propenoyl)-1-piperazinyl)-1-(2-(trifluoromethyl)phenyl)-2(1H)-quinazolinone] was tested, and the “Coupled exchange IC50 (2 h)” value was “nda | 18 μM”.

Same assay, conditions: read-out: Coupled exchange IC50 (5 min); 5 min compound pre-incubation
For `C=CC(=O)N1CCN(c2nc(CO)c(-c3ccccc3C(C)C)c3nc(-c4ccccc4F)c(Cl)cc23)CC1` [Example 85-1], the IC50 was 6.34 µM.
`C=CC(=O)N1CCN(c2nc(=O)n(-c3ccccc3C(C)C)c3nc(-c4ccc[nH]c4=O)c(Cl)cc23)[C@@H](C)C1` [Example 97, 6-Chloro-4-((2S)-2-methyl-4-(2-propenoyl)-1-piperazinyl)-7-(2-oxo-1,2-dihydro-3-pyridinyl)-1-(2-(2-propanyl)phenyl)pyrido[2,3-d]pyrimidin-(1H)-one] showed an IC50 of 39 µM.
